{"source": "EPA's ToxValDB 9.5 (doi:10.2903/j.efsa.2008.151r)", "key": {"[1]": {"tested_on": "Oryctolagus sp.", "conditions": "developmental; development"}, "[2]": {"tested_on": "Lepomis macrochirus", "conditions": "chronic/long-term; duration: 28 days; body weight"}, "[3]": {"tested_on": "Tagia sp.", "conditions": "acute; duration: 14 days; mortality"}, "[4]": {"tested_on": "Canidae", "conditions": "subchronic; duration: 90 days; oral; Dog Other; body weight"}, "[5]": {"tested_on": "Daphnia magna", "conditions": "chronic/long-term; duration: 21 days; reproduction"}, "[6]": {"tested_on": "Rattus norvegicus"}, "[7]": {"tested_on": "Typhlodromus pyri", "assay": "LR50; higher = less toxic", "conditions": "not reported; mortality"}, "[8]": {"conditions": "reproduction developmental, reproduction"}}}
{"smiles": "CC(C)C(O)(c1ccc(OC(F)(F)F)cc1)c1cncnc1", "note": "(configuration not stated) [Flurprimidol]", "values": [{"measurement": "NOAEL", "setting": "[1]", "result": 9, "unit": "mg/kg-day"}, {"measurement": "NOEC", "setting": "[2]", "result": 0.42, "unit": "mg/L"}, {"measurement": "NOEC", "setting": "[3]", "result": 62.6, "unit": "mg/kg"}, {"measurement": "NOAEL", "setting": "[4]", "result": 1.5, "unit": "mg/kg-day"}, {"measurement": "NOEC", "setting": "[5]", "result": 1.7, "unit": "mg/L"}, {"measurement": "LOAEL", "setting": "[6]; chronic, duration: 2 years, organ weight", "result": 1, "unit": "mg/kg-day"}, {"measurement": "NOAEL", "setting": "[6]; developmental, development", "result": 10, "unit": "mg/kg-day"}, {"measurement": "NOAEL", "setting": "[6]; [8]", "result": 1.8, "unit": "mg/kg-day"}, {"measurement": "NOEL", "setting": "[6]; [8]", "result": 1.8, "unit": "mg/kg-day"}, {"measurement": "NOEL", "setting": "[6]; short-term, oral, diet, body weight", "result": 1.62, "unit": "mg/kg-day"}, {"measurement": "NOAEL", "setting": "[6]; subchronic, duration: 90 days, oral, F, organ weight", "result": 1.96, "unit": "mg/kg-day"}, {"measurement": "LR50", "setting": "[7]", "result": "> 29.6", "unit": "g/ha"}]}
